Measurements published in patent US8969335B2, “Benzonitrile derivatives as kinase inhibitors” (MERCK PATENT GmbH, priority 2011, dated 2015).

Experiments:
[1] = molecular target: TANK binding kinase (TBK1) (Homo sapiens (Human), UniProt Q9UHD2); test: TBK1 enzyme assay (384-well flashplate kinase assay); assay type: biochemical; details: 0.6 nM TBK1, 10 μM ATP, 30° C., 120 min
[2] = molecular target: IKKε (Homo sapiens (Human), UniProt Q14164); test: IKKε kinase assay (384-well flashplate assay); assay type: biochemical; details: 1 nM IKKε, 10 μM ATP, 30° C., 2 hours; read-out: IKKε enzyme assay IC50
Procedure: Test for the Inhibition of IKKε
IKKε—Kinase Assay (IKKepsilon)
The kinase assay is performed as 384-well flashplate assay (for example for Topcount measurement).
1 nM IKKε, 800 nM biotinylated IκBα(19-42) peptide (Biotin-C6-C6-[…]) and 10 μM ATP (spiked with 0.3 μCi of ^33P-ATP/well) are incubated at 30° C. for 2 hours in a total volume of 50 μl (10 mM MOPS, 10 mM Mg acetate, 0.1 mM EGTA, 1 mM dithiothreitol, 0.02% of Brij35, 0.1% of BSA, 0.1% of BioStab, pH 7.5) with or without test compound. The reaction is stopped using 25 μl of 200 mM EDTA. After 30 min at room temperature, the liquid is removed, and each well is washed three times with 100 μl of 0.9% sodium chloride solution. Non-specific reaction is determined in the presence of 3 μM MSC2119074 (BX-795). The radioactivity is measured using a Topcount (PerkinElmer). The results (for example IC50 values) are calculated using program tools provided by the IT Department (for example AssayExplorer, Symyx).

Chain of IKKε (Q14164 whole entry): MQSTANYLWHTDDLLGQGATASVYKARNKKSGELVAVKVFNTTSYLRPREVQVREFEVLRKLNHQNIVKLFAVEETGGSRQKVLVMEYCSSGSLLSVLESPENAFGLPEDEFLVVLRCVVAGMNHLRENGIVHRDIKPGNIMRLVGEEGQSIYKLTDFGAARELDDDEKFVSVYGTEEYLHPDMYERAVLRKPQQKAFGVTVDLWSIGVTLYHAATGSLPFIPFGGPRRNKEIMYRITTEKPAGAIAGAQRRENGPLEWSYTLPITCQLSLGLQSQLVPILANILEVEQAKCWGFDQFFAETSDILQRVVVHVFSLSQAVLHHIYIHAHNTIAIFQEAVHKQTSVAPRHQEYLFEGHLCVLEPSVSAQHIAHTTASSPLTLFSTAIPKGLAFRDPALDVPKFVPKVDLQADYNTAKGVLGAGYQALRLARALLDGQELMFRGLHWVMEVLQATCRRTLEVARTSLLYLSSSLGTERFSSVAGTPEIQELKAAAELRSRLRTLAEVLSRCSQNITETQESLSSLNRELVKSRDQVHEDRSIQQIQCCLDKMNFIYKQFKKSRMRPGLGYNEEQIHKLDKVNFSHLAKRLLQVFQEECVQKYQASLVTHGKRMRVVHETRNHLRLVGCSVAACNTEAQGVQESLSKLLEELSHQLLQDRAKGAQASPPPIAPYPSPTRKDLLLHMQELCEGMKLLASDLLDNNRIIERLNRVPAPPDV
Chain of TANK binding kinase (TBK1) (Q9UHD2 whole entry): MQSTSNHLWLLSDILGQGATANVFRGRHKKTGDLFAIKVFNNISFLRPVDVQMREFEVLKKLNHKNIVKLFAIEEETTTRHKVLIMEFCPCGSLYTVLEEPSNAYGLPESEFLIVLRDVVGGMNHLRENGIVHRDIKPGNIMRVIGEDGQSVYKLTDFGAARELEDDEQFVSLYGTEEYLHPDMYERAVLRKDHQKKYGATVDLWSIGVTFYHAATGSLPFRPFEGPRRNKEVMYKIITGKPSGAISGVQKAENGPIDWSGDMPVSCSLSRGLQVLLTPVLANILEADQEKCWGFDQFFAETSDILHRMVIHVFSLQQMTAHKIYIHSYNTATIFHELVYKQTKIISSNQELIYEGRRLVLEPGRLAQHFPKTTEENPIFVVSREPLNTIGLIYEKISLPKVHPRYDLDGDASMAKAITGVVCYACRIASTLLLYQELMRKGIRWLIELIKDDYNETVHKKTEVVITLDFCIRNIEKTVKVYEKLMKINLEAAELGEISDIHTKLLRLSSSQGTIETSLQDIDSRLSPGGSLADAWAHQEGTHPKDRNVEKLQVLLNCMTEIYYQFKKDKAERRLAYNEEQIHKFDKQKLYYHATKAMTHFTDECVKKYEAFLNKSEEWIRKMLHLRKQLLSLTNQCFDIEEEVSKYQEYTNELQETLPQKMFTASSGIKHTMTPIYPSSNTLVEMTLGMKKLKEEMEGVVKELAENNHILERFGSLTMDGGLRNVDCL

Row | SMILES | IC50 [1] | IC50 [2]
1 | N#Cc1cc(-c2ccnc(Nc3ccc4oc(C(N)=O)cc4c3)c2)ccc1OC1CCOCC1 [Compound A19, 5-{4-[3-Cyano-4-(tetrahydropyran-4-yloxy)phenyl]pyridin-2-ylamino}benzofuran-2-carboxamide] | 1900 nM | 390 nM
2 | N#Cc1cc(-c2ccnc(Nc3cc(CO)ccn3)c2)ccc1OC1CCOCC1 [Compound A18, 5-[2-(4-Hydroxymethylpyridin-2-ylamino)pyridin-4-yl]-2-(tetrahydropyran-4-yloxy)benzonitrile] | 8 nM | 13 nM
3 | N#Cc1cc(-c2ccnc(Nc3cncc(C4=CCCCO4)n3)c2)ccc1OC1CCOCC1 [Compound A92, 5-{2-[6-(5,6-dihydro-4H-pyran-2-yl)pyrazin-2-ylamino]pyridin-4-yl}-2-(tetrahydropyran-4-yloxy)benzonitrile] | 850 nM | 930 nM
4 | CC(=O)N1CCC(COc2ccc(-c3ccnc(Nc4ccc(CO)cn4)c3)cc2C#N)CC1 [Compound A115, 2-(1-acetylpiperidin-4-ylmethoxy)-5-[2-(5-hydroxymethylpyridin-2-ylamino)pyridin-4-yl]benzonitrile] | 1500 nM | 1100 nM
5 | N#Cc1cc(-c2ccnc(Nc3cc(C4=CCCCO4)ccn3)c2)ccc1OC1CCOCC1 [Compound A86, 5-{2-[4-(5,6-dihydro-4H-pyran-2-yl)pyridin-2-ylamino]pyridin-4-yl}-2-(tetrahydropyran-4-yloxy)benzonitrile] | 290 nM | 300 nM
6 | CC(C)(C)c1cc(Nc2cc(-c3ccc(OC4CCOCC4)c(C#N)c3)ccn2)on1 [Compound A31, 5-[2-(3-tert-Butylisoxazol-5-ylamino)pyridin-4-yl]-2-(tetrahydropyran-4-yloxy)benzonitrile] | 860 nM | 850 nM
7 | N#Cc1cc(-c2ccnc(Nc3nc(C4CC4)cs3)n2)ccc1OC1CCOCC1 [Compound A87, 5-[2-(4-cyclopropylthiazol-2-ylamino)pyrimidin-4-yl]-2-(tetrahydropyran-4-yloxy)benzonitrile] | 300 nM | 300 nM
8 | N#Cc1cc(-c2ccnc(Nc3nccnc3CO)c2)ccc1OC1CCOCC1 [Compound A102, 5-[2-(3-hydroxymethylpyrazin-2-ylamino)pyridin-4-yl]-2-(tetrahydropyran-4-yloxy)benzonitrile] | 350 nM | 430 nM
9 | N#Cc1cc(-c2ccnc(Nc3ccc(=O)[nH]n3)n2)ccc1OC1CCOCC1 [Compound A69, 5-[2-(6-oxo-1,6-dihydropyridazin-3-ylamino)pyrimidin-4-yl]-2-(tetrahydropyran-4-yloxy)benzonitrile] | 1600 nM | 650 nM
10 | N#Cc1cc(-c2ccnc(Nc3ccc(C(F)(F)F)cn3)c2)ccc1OC1CCOCC1 [Compound A13, 2-(Tetrahydropyran-4-yloxy)-5-[2-(5-trifluoromethylpyridin-2-ylamino)pyridin-4-yl]-benzonitrile] | 310 nM | 530 nM
11 | N#Cc1cc(-c2ccnc(Nc3cnn(CC(F)F)c3)n2)ccc1OC1CCOCC1 [Compound A44, 5-{2-[1-(2,2-Difluoroethyl)-1H-pyrazol-4-ylamino]pyrimidin-4-yl}-2-(tetrahydropyran-4-yloxy)benzonitrile] | 5 nM | 10 nM
12 | N#Cc1cc(-c2ccnc(Nc3cc(CO)ccn3)n2)ccc1OC1CCOCC1 [Compound A70, 5-[2-(4-hydroxymethylpyridin-2-ylamino)pyrimidin-4-yl]-2-(tetrahydropyran-4-yloxy)benzonitrile] | 180 nM | 140 nM
13 | Cc1coc(Nc2nccc(-c3ccc(OC4CCOCC4)c(C#N)c3)n2)n1 [Compound A93, 5-[2-(4-methyloxazol-2-ylamino)pyrimidin-4-yl]-2-(tetrahydropyran-4-yloxy)benzonitrile] | 550 nM | 310 nM
14 | N#Cc1cc(-c2ccnc(Nc3cn[nH]c3)c2)ccc1OCC1CC1 [Compound A104, 2-cyclopropylmethoxy-5-[2-(1H-pyrazol-4-ylamino)pyridin-4-yl]-benzonitrile] | 460 nM | 96 nM
15 | N#Cc1cc(-c2ccnc(Nc3ccc4oc(C(N)=O)cc4c3)n2)ccc1OC1CCOCC1 [Compound A42, 5-{4-[3-Cyano-4-(tetrahydropyran-4-yloxy)phenyl]pyrimidin-2-ylamino}benzofuran-2-carboxamide] | 10 nM | 15 nM
16 | CC(=O)N1CCC(COc2ccc(-c3ccnc(Nc4ccc(N5CCOCC5)cn4)c3)cc2C#N)CC1 [Compound A117, 2-(1-acetylpiperidin-4-ylmethoxy)-5-[2-(5-morpholin-4-ylpyridin-2-ylamino)pyridin-4-yl]benzonitrile] | 810 nM | 610 nM
17 | N#Cc1cc(-c2ccnc(Nc3cnn(C4CCNC4)c3)n2)ccc1OC1CCOCC1 (centres unmarked) [Compound A40, 5-[2-(1-Pyrrolidin-3-yl-1H-pyrazol-4-ylamino)pyrimidin-4-yl]-2-(tetrahydropyran-4-yloxy)benzonitrile] | 7 nM | 5 nM

Second part, the compound after the results:

Row | IC50 [1] | IC50 [2] | SMILES
18 | 460 nM | 320 nM | N#Cc1cc(-c2ccnc(Nc3cnn(CCn4cccn4)c3)c2)ccc1OC1CCOCC1 [Compound A38, 5-{2-[1-(2-Pyrazol-1-ylethyl)-1H-pyrazol-4-ylamino]pyridin-4-yl}-2-(tetrahydropyran-4-yloxy)benzonitrile]
19 | 490 nM | 82 nM | COCCn1cc(Nc2cc(-c3ccc(OCC4CCC4)c(C#N)c3)ccn2)cn1 [Compound A110, 2-cyclobutylmethoxy-5-{2-[1-(2-methoxyethyl)-1H-pyrazol-4-ylamino]-pyridin-4-yl}benzonitrile]
20 | 85 nM | 77 nM | N#Cc1cc(-c2ccnc(Nc3cnn(CC4CCOC4)c3)c2)ccc1OC1CCOCC1 (centres unmarked) [Compound A27, 5-{2-[1-(Tetrahydrofuran-3-ylmethyl)-1H-pyrazol-4-ylamino]pyridin-4-yl}-2-(tetrahydropyran-4-yloxy)benzonitrile]
21 | 70 nM | 65 nM | N#Cc1cc(-c2ccnc(Nc3cnn(CCn4cccn4)c3)n2)ccc1OC1CCOCC1 [Compound A43, 5-{2-[1-(2-Pyrazol-1-ylethyl)-1H-pyrazol-4-ylamino]pyrimidin-4-yl}-2-(tetrahydropyran-4-yloxy)benzonitrile]
22 | 290 nM | 67 nM | N#Cc1cc(-c2ccnc(Nc3cnn(C4CNC4)c3)c2)ccc1OC1CCOCC1 [Compound A25, 5-[2-(1-Azetidin-3-yl-1H-pyrazol-4-ylamino)pyridin-4-yl]-2-(tetrahydropyran-4-yloxy)benzonitrile]
23 | 330 nM | 390 nM | N#Cc1cc(-c2ccnc(Nc3cncc(N4CCOCC4)n3)c2)ccc1OC1CCOCC1 [Compound A85, 5-[2-(6-morpholin-4-ylpyrazin-2-ylamino)pyridin-4-yl]-2-(tetrahydropyran-4-yloxy)benzonitrile]
24 | 5500 nM | 650 nM | COCCn1cc(Nc2cc(-c3ccc(OCC4CCN(C(C)=O)CC4)c(C#N)c3)ccn2)cn1 [Compound A114, 2-(1-acetylpiperidin-4-ylmethoxy)-5-{2-[1-(2-methoxyethyl)-1H-pyrazol-4-ylamino]pyridin-4-yl}benzonitrile]
25 | 140 nM | 120 nM | N#Cc1cc(-c2ccnc(Nc3nccc(C4CCNCC4)n3)c2)ccc1OC1CCOCC1 [Compound A89, 5-[2-(4-piperidin-4-ylpyrimidin-2-ylamino)pyridin-4-yl]-2-(tetrahydropyran-4-yloxy)benzonitrile]
26 | 14 nM | 21 nM | N#Cc1cc(-c2ccnc(Nc3ccc(CO)cn3)c2)ccc1OC1CCOCC1 [Compound A15, 5-[2-(5-Hydroxymethylpyridin-2-ylamino)pyridin-4-yl]-2-(tetrahydropyran-4-yloxy)benzonitrile]
27 | 71 nM | 7 nM | N#Cc1cc(-c2ccnc(Nc3cnn(C4CCNCC4)c3)c2)ccc1OC1CCOCC1 [Compound A16, 5-[2-(1-Piperidin-4-yl-1H-pyrazol-4-ylamino)pyridin-4-yl]-2-(tetrahydropyran-4-yloxy)benzonitrile]
28 | 42 nM | 45 nM | N#Cc1cc(-c2ccnc(Nc3cnn(CCC4CCN(C(=O)CN)CC4)c3)c2)ccc1OC1CCOCC1 [Compound A30, 5-[2-(1-{2-[1-(2-Aminoacetyl)piperidin-4-yl]ethyl}-1H-pyrazol-4-ylamino)pyridin-4-yl]-2-(tetrahydropyran-4-yloxy)benzonitrile]
29 | 16 nM | 25 nM | N#Cc1cc(-c2ccnc(Nc3cnn(CCN4CCOCC4)c3)n2)ccc1OC1CCOCC1 [Compound A39, 5-{2-[1-(2-Morpholin-4-ylethyl)-1H-pyrazol-4-ylamino]pyrimidin-4-yl}-2-(tetrahydropyran-4-yloxy)benzonitrile]
30 | 14 nM | 39 nM | N#Cc1cc(-c2ccnc(Nc3ccc(C4CCOCC4)nn3)c2)ccc1OC1CCOCC1 [Compound A100, 2-(tetrahydropyran-4-yloxy)-5-{2-[6-(tetrahydropyran-4-yl)pyridazin-3-yl-amino]pyridin-4-yl}benzonitrile]
31 | 220 nM | 65 nM | COCCn1cc(Nc2cc(-c3ccc(OCC4CC4)c(C#N)c3)ccn2)cn1 [Compound A105, 2-cyclopropylmethoxy-5-{2-[1-(2-methoxyethyl)-1H-pyrazol-4-ylamino]-pyridin-4-yl}benzonitrile]
